Data published in publication PMC5784158, “New 2-Aryl-9-methyl-β-carbolinium salts as Potential Acetylcholinesterase Inhibitor agents: Synthesis, Bioactivity and Structure–Activity Relationship” (Scientific Reports, 2018).
Read-outs that look alike come from different tables or passages of the source.

Tests used:
[1] = target: AChE (Musca domestica, UniProt Q7YWJ9); assay: biochemical; format: biochemical, fly; conditions: for Inhibition rate (%): test concentration of the compound 10 μM
Procedure: AChE (E.C. 3.1.1.7) (BR, 200 u/mg) from fly’s head and BuChE (E.C. 3.1.1.8) (BR, 20 u/mg) from horse serum were purchased from Shanghai Yuanye biological technology Co. Ltd (Shanghai, China).
(§1) The inhibitory activities of the compounds against AChE were evaluated according to Ellman’s coupled enzyme assay[47] with the following modifications. 90 μL potassium phosphate buffer (PBS, 0.1 M, pH 7.4), 10 μL the solution of 2 units/mL AChE in 0.1 M PBS (pH 7.4) and 10 μL the solution of 200 μM test compounds in the mixed solution of methanol-PBS (pH 7.4) (1:9, V/V) were added to each well of a 96-well plate. The methanol-PBS solution was used as a blank control. After incubation at room temperature for 10 min, 60 μL the solution of 10 mM DTNB in PBS was added into each the well. The plate was placed on crushed ices and cooled for 20 min. To each the well was added 30 μL the solution of 7.5 mM ATCh in PBS (pH 7.4). […] Each test was performed in triplicate. Inhibition rates of the enzyme were calculated relative to a control sample. The inhibitory activities against BuChE were measured as described above for AChE, using 0.7 unit/mL BuChE and 4 mM BuTCh instead of AChE and ATCh as the enzyme and substrate, respectively.
(§2) The probit value of the average inhibition rate for each test concentration and the corresponding lg[concentration] were used to establish enzyme inhibition regression equation by the linear least-square fitting method. IC50 values were calculated from the equations.

[2] = target: T1, BuChE (Equus caballus, UniProt P81908); assay: BuChE inhibition, Ellman's method; format: biochemical, horse; conditions: read-out: IC50 ± S.D BuChE
T1 construct: BuChE (E.C. 3.1.1.8) (BR, 20 u/mg) from horse serum; purchased Shanghai Yuanye biological technology Co. Ltd (Shanghai, China); host or cells: horse serum (tissue-derived)
T1 sequence (P81908 whole entry): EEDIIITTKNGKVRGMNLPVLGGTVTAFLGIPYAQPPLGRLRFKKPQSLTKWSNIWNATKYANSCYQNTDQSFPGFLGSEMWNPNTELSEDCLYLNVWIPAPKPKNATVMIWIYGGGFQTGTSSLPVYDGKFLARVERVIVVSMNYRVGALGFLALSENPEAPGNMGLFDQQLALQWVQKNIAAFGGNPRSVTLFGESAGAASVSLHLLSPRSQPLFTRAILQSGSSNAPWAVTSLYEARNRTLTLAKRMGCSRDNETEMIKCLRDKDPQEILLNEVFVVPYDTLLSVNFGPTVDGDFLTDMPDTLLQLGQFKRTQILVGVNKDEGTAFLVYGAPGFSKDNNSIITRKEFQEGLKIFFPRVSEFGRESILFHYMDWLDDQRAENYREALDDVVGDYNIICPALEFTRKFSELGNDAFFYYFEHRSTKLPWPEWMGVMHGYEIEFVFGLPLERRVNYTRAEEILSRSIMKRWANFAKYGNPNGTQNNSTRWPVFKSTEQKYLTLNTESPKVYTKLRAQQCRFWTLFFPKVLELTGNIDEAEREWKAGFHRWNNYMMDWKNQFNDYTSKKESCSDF
Text: There is increasing recognition that BuChE may play an important role in cholinergic transmission[15],[16]. While the level of AChE decreases dramatically in the advanced stage of AD, BuChE increases in brain regions involved in cognitive functions[17],[18]. At this point, BuChE is able to compensate for AChE loss by hydrolyzing ACh. These observations lead one to believe that inhibition of both AChE and BuChE may contribute to improvement of current symptomatic treatments of AD. Therefore, the compounds in Table 2 were also evaluated for BuChE inhibition activity by means of Ellman’s method. […] AChE (E.C. 3.1.1.7) (BR, 200 u/mg) from fly’s head and BuChE (E.C. 3.1.1.8) (BR, 20 u/mg) from horse serum were purchased from Shanghai Yuanye biological technology Co. Ltd (Shanghai, China).
as §1, §2

[3] = Estimated values based on the results in Table 1 (inhibition rate at 10 μM), read-out: IC50 AChE, estimated values

AChE, sequence (Q7YWJ9 81-659): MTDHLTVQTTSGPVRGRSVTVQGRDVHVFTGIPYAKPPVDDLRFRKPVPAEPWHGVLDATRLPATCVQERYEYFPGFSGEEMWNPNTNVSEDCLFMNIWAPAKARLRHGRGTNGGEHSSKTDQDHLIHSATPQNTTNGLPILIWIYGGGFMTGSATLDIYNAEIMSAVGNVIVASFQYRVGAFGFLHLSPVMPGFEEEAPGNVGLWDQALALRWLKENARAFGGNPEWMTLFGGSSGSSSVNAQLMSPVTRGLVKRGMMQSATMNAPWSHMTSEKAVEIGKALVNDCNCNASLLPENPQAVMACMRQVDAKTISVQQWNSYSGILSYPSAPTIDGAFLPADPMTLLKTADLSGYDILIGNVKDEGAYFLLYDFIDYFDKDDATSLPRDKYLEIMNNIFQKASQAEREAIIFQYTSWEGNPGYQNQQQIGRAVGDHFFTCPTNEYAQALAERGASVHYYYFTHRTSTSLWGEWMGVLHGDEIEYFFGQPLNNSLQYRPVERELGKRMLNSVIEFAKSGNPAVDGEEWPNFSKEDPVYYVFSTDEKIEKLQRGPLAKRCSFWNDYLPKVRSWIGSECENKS

SMILES | SI: selectivity index, ratio IC50 (BuChE)/IC50 (AChE) [1] | IC50 ([1]; read-out: IC50 ± S.D AChE) [µM] | Inhibition rate (%) [1] | IC50 [2] [µM] | IC50 [1, 3] [µM]
Cn1c2ccccc2c2cc[n+](-c3cccc(O)c3)cc21.[Br-] [Compound B15, 9-Methyl-2-(3-hydroxyhenyl)-β-carboline bromide] | 7.60 | 3.92 ± 0.3 | 72.1 ± 1.8 l % | 29.6 ± 2.48 | –
COc1ccc([N+]2=Cc3c(c4ccccc4n3C)CC2)cc1.[Br-] [Compound A19] | 46.9 | 2.92 ± 0.28 | 66.1 ± 0.5 c % | 137 ± 0.79 | –
Cn1c2c(c3ccc(F)cc31)CC[N+](c1ccccc1)=C2.[Br-] [Compound A36] | 3.00 | 4.74 ± 0.9 | 59.3 ± 2.1 de % | 14.2 ± 0.44 | –
Cc1ccc2c(c1)c1c(n2C)C=[N+](c2ccccc2)CC1.[Br-] [Compound A35] | 3.98 | 2.66 ± 0.37 | 70.3 ± 2.2 bc % | 10.6 ± 0.58 | –
Cn1c2ccccc2c2cc[n+](-c3ccc(Br)cc3)cc21.[Br-] [Compound B10, 9-Methyl-2-(4-bromophenyl)-β-carboline bromide] | 128.8 | 0.43 ± 0.04 | 95.4 ± 0.8 ab % | 55.4 ± 1.73 | –
CCCCn1c2c(c3ccccc31)CC[N+](c1ccccc1)=C2.[Br-] [Compound A42] | 1.02 | 9.79 ± 3.55 | 53.9 ± 1.5 ef % | 10 ± 0.68 | –
Cn1c2ccccc2c2cc[n+](-c3ccc(Cl)cc3Cl)cc21.[Br-] [Compound B30, 9-Methyl-2-(2,4-dichlorophenyl)-β-carboline bromide] | 241.1 | 0.55 ± 0.07 | 90.6 ± 1.0 def % | 133 ± 26.3 | –
CCCn1c2c(c3ccccc31)CC[N+](c1ccccc1)=C2.[Br-] [Compound A39] | 2.27 | 5.72 ± 0.66 | 67.1 ± 2.4 c % | 13 ± 0.62 | –
CCn1c2c(c3ccccc31)CC[N+](c1ccccc1)=C2.[Br-] [Compound A38] | 2.82 | 3.69 ± 0.4 | 76.6 ± 3.7 a % | 10.4 ± 0.4 | –
C1=[N+](c2ccccc2)CCc2c1n(Cc1ccccc1)c1ccccc21.[Br-] [Compound A44] | – | – | 31.2 ± 4.4 ef % | – | > 10
Cc1ccccc1[N+]1=Cc2c(c3ccccc3n2C)CC1.[Br-] [Compound A20] | – | – | 44.3 ± 1.7 j % | – | > 10
Cn1c2c(c3ccccc31)CC[N+](c1ccc(Br)cc1F)=C2.[Br-] [Compound A32] | – | – | 11.1 ± 2.8 opq % | – | > 10
Cn1c2ccccc2c2cc[n+](-c3cccc(C(F)(F)F)c3)cc21.[Br-] [Compound B26, 9-Methyl-2-(3-trifluoromethylphenyl)-β-carboline bromide] | – | – | 41.0 ± 1.9 rs % | – | > 10
Cn1c2c(c3ccccc31)CC[N+](c1cccc(F)c1)=C2.[Br-] [Compound A3] | – | – | 22.4 ± 1.1 l % | – | > 10
Cc1ccc2c(c1)c1cc[n+](-c3ccccc3)cc1n2C.[Br-] [Compound B35, 6,9-Dimethyl-2-phenyl-β-carboline bromide] | – | 0.42 ± 0.15 | 88.6 ± 2.5 efg % | – | –
Cc1cccc([N+]2=Cc3c(c4ccccc4n3C)CC2)c1.[Br-] [Compound A21] | – | – | 28.6 ± 1.7 k % | – | > 10
Cn1c2cc(Cl)ccc2c2cc[n+](-c3ccccc3)cc21.[Br-] [Compound B37, 7-Chloro-9-methyl-2-phenyl-β-carboline bromide] | – | 0.57 ± 0.08 | 89.9 ± 0.7 def % | – | –
